# Source: patent publication US10968214B2, “KRas G12C inhibitors” (Eli Lilly and Company, priority 2018, dated 2021)
# Like-named read-outs stand apart in the source and are kept apart here.
# Key:
# Miapaca-2 = assay: CellTiterGlo Cell Proliferation Assay, Miapaca-2; assay type: cell-based; settings: Homo sapiens, MIA PaCa-2, KRas G12C, Pancreas, 96 hr
# Protocol: A panel of tumor cell lines harboring KRas G12C or other KRas mutations are collected (Table 6). All cell lines are from ATCC or other sources indicated.
# Typically cells are cultured in RPMI1640 or Dulbecco's modified Eagle's medium (DMEM, GIBCO) supplemented with 10% FBS (GIBCO, Invitrogen). For 2D culture cells (4×10^3/well) maintained in growth medium described above, are plated onto 96 well tissue culture plates Corning® Cat. 3603) a day before the treatment. For 3D culture 8000 cells/well are seeded onto 96 well ultra-low attachment tissue culture plates (Corning, #3474). The cells are treated compound for 96 hr, and then are analyzed for viability using the CellTiterGlo® Luminescent Cell Viability Assay® (Promega #G7572 for 2D and Promega #G9683 for 3D cultures) according to manufacturer's instructions and an EnVision™ plate reader. Nonlinear regression and sigmoidal dose-response curves are used to calculate the half maximal inhibitory concentration (IC50) with GraphPad Prism 4® software.
# SW1463 = assay: Combination 4 day growth assay (Cell TiterGlo), SW1463; assay type: cell-based; settings: Homo sapiens, SW1463, 96 h, single treatment, read-out: Absolute IC50
# Protocol: Cell lines for this study are obtained from ATCC and grown under ATCC recommended conditions, except for LXFA-983L, which is obtained from Oncotest/Charles Rivers Laboratories, Wilmington, Mass. and D122-96, which is obtained from L. Eisenbach (Weizman Institute of Science, Rehovot, Israel)—both grown under recommended conditions. […] The proliferation assay is performed as a 4 day growth assay using Cell TiterGlo® as the readout. Briefly, cells are plated in 96-well cell culture plates and allowed to adhere overnight at 37° C. The following day, cells are treated with compounds, either single treatments or combination treatments. First, the testing compounds are serially diluted in DMSO, followed by dilution into media as a 5× concentration with 1% DMSO, and finally added to cells in media to dilute to 1×. The cells are incubated at 37° C. for 4 more days. At the end of the incubation period, Cell TiterGlo® reagent is mixed and added to the wells. After 10 minutes, the luminescence is read by a Perkin Elmer Envision instrument. Absolute IC50 values generated by a 4-parameter logistics model for the single and combination treatments are generated, followed by combination indexes for each combination treatment and cell line. The combination IC50 values are adjusted based on the total concentration of each compound when added together. […] The combination index (CI) measures the degree to which the potency of a combination therapy differs from the expected-if-additive potency and is based on the Loewe definition of additivity.
# [formula] Where • CAy and CBy are the concentrations of therapies A and B that produce an effect, y, when given in combination • ICAy and ICBy are the concentrations of A and B that produce an effect, y, when given individually The biological interpretation of the combination index is as follows: synergistic if the combination index <0.5, additive if the combination index is between 0.5 and 2, and antagonistic if the combination index is >2.
compound,measurement,setting,value
"C=CC(=O)N1CCN(c2ncnc3c(F)c(-c4ccc(F)c5sc(N)nc45)c(Cl)cc23)CC1 [Example 1, 1-{4-[7-(2-Amino-7-fluoro-1,3-benzothiazol-4-yl)-6-chloro-8-fluoroquinazolin-4-yl]piperazin-1-yl}prop-2-en-1-one]",IC50,Miapaca-2; read-out: IC50 (μM) in 2 D cell proliferation,0.014 µM
same,IC50,Miapaca-2; read-out: IC50 (μM) in 3 D spheroid cell proliferation,0.086 µM
same,IC50,SW1463,14.1 nM
